Results reported in patent US4181797A, “1-N-(ω-amino-α-hydroxyalkanoyl) derivatives of 4'-deoxy-6'-N-methylkanamycin A” (Bristol-Myers Company, priority 1978, dated 1980).
Converted amounts (≈) assume the structure as drawn.

Assays:
B. brevis IFO 12334 = test: MIC in Mueller-Hinton agar, ANT(4')-producing strain; type: cell-based; details: Brevibacillus brevis, IFO12334; B. brevis IFO 12334; ANT(4')-producing; Mueller-Hinton agar; read-out: MIC
Method: (§1) The Minimum Inhibitory Concentrations (MIC's) of BB-K311, amikacin and kanamycin A were determined in Mueller-Hinton agar against a number of kanamycin-sensitive and kanamycin-resistant strains of organisms.

S. aureus A22054 = test: as above; type: cell-based; details: Staphylococcus aureus; S. aureus A22054; ANT(4')-producing; Mueller-Hinton agar; read-out: MIC
Method: as §1

S. epidermidis A22033 = test: as above; type: cell-based; details: Staphylococcus epidermidis; S. epidermidis A22033; ANT(4')-producing; Mueller-Hinton agar; read-out: MIC
Method: as §1

E. cloacae A20364 = test: MIC in Mueller-Hinton agar, APH(3')-I producer; type: cell-based; details: Enterobacter cloacae; E. cloacae A20364; enzyme produced: APH(3')-I; Mueller-Hinton agar; read-out: MIC
Method: as §1

E. coli A20363 = test: MIC in Mueller-Hinton agar, APH(3')-I producer; type: cell-based; details: Escherichia coli; E. coli A20363; enzyme produced: APH(3')-I; Mueller-Hinton agar; read-out: MIC
Method: as §1

E. cloacae A21006 = test: MIC in Mueller-Hinton agar, APH(3')-II producer; type: cell-based; details: Enterobacter cloacae; E. cloacae A21006; enzyme produced: APH(3')-II; Mueller-Hinton agar; read-out: MIC
Method: as §1

E. coli A20107 = test: MIC in Mueller-Hinton agar, APH(3')-II producer; type: cell-based; details: Escherichia coli; E. coli A20107; enzyme produced: APH(3')-II; Mueller-Hinton agar; read-out: MIC
Method: as §1

E. coli A20895 = test: MIC in Mueller-Hinton agar, AAC(3)-I producer; type: cell-based; details: Escherichia coli; E. coli A20895; enzyme produced: AAC(3)-I; Mueller-Hinton agar; read-out: MIC
Method: as §1

E. coli A20732 = test: MIC in Mueller-Hinton agar, ANT(2") producer; type: cell-based; details: Escherichia coli; E. coli A20732; enzyme produced: ANT(2"); Mueller-Hinton agar; read-out: MIC
Method: as §1

E. cloacae A20464 = test: MIC in Mueller-Hinton agar, kanamycin-sensitive strain; type: cell-based; details: Enterobacter cloacae; E. cloacae A20464; enzyme produced: none; Mueller-Hinton agar; read-out: MIC
Method: as §1

E. coli A9632 = test: as above; type: cell-based; details: Escherichia coli; E. coli A9632; enzyme produced: none; Mueller-Hinton agar; read-out: MIC
Method: as §1

P. stuartii A20615 = test: as above; type: cell-based; details: Providencia stuartii; P. stuartii A20615; enzyme produced: none; Mueller-Hinton agar; read-out: MIC
Method: as §1

P. Morganii A20031 = test: as above; type: cell-based; details: Morganella morganii; P. Morganii A20031; enzyme produced: none; Mueller-Hinton agar; read-out: MIC
Method: as §1

K. pneumoniae A15130 = test: as above; type: cell-based; details: Klebsiella pneumoniae; K. pneumoniae A15130; enzyme produced: none; Mueller-Hinton agar; read-out: MIC
Method: as §1

S. marcescens A20019 = test: as above; type: cell-based; details: Serratia marcescens; S. marcescens A20019; enzyme produced: none; Mueller-Hinton agar; read-out: MIC
Method: as §1

S. aureus Smith = test: as above; type: cell-based; details: Staphylococcus aureus; S. aureus Smith; enzyme produced: none; Mueller-Hinton agar; read-out: MIC
Method: as §1

P. mirabilis A9900 = test: as above; type: cell-based; details: Proteus mirabilis; P. mirabilis A9900; enzyme produced: none; Mueller-Hinton agar; read-out: MIC
Method: as §1

B. brevis ATCC8185 = test: as above; type: cell-based; details: Brevibacillus brevis; B. brevis ATCC8185; enzyme produced: none; Mueller-Hinton agar; read-out: MIC
Method: as §1

P. vulgaris A9526 = test: as above; type: cell-based; details: Proteus vulgaris; P. vulgaris A9526; enzyme produced: none; Mueller-Hinton agar; read-out: MIC
Method: as §1

[1] = test system: aminoglycoside-4'-adenylyltransferase [ANT(4')]; details: background statement; cited from earlier work
[2] = test system: aminoglycoside-6'-acetyltransferase [AAC(6')]; details: background statement; cited from earlier work
S. marcescens A22382 = test: MIC in Mueller-Hinton agar, AAC(6')-producing strain; type: cell-based; details: Serratia marcescens; S. marcescens A22382; AAC(6')-producing; Mueller-Hinton agar; read-out: MIC
Method: as §1

S. epidermidis A22211 = test: as above; type: cell-based; details: Staphylococcus epidermidis; S. epidermidis A22211; AAC(6')-producing; Mueller-Hinton agar; read-out: MIC
Method: as §1

S. aureus A22153 = test: as above; type: cell-based; details: Staphylococcus aureus; S. aureus A22153; AAC(6')-producing; Mueller-Hinton agar; read-out: MIC
Method: as §1

P. aeruginosa GN4925 = test: as above; type: cell-based; details: Pseudomonas aeruginosa; P. aeruginosa GN4925; AAC(6')-producing; Mueller-Hinton agar; read-out: MIC
Method: as §1

S. aureus A22421 = test: as above; type: cell-based; details: Staphylococcus aureus; S. aureus A22421; AAC(6')-producing; Mueller-Hinton agar; read-out: MIC
Method: as §1

S. marcescens A21226 = test: as above; type: cell-based; details: Serratia marcescens; S. marcescens A21226; AAC(6')-producing; Mueller-Hinton agar; read-out: MIC
Method: as §1

S. marcescens A22288 = test: as above; type: cell-based; details: Serratia marcescens; S. marcescens A22288; AAC(6')-producing; Mueller-Hinton agar; read-out: MIC
Method: as §1

P. rettgeri HM-56 = test: as above; type: cell-based; details: Providencia rettgeri, HM56; P. rettgeri HM-56; AAC(6')-producing; Mueller-Hinton agar; read-out: MIC
Method: as §1

S. marcescens A21235 = test: as above; type: cell-based; details: Serratia marcescens; S. marcescens A21235; AAC(6')-producing; Mueller-Hinton agar; read-out: MIC
Method: as §1

E. coli A2128 = test: as above; type: cell-based; details: Escherichia coli; E. coli A2128; AAC(6')-producing; Mueller-Hinton agar; read-out: MIC
Method: as §1

P. aeruginosa GN315 = test: as above; type: cell-based; details: Pseudomonas aeruginosa; P. aeruginosa GN315; AAC(6')-producing; Mueller-Hinton agar; read-out: MIC
Method: as §1

E. cloacae HM-43 = test: as above; type: cell-based; details: Enterobacter cloacae, HM43; E. cloacae HM-43; AAC(6')-producing; Mueller-Hinton agar; read-out: MIC
Method: as §1

S. epidermidis A22152 = test: as above; type: cell-based; details: Staphylococcus epidermidis, A22152
Method: as §1

[3] = test system: microorganisms containing aminoglycoside-inactivating enzymes; details: background statement; cited from earlier work

## NCC[C@H](O)C(=O)N[C@@H]1C[C@H](N)[C@@H](O[C@H]2O[C@H](CN)[C@@H](O)[C@H](O)[C@H]2O)[C@H](O)[C@H]1O[C@H]1O[C@H](CO)[C@@H](O)[C@H](N)[C@H]1O [Amikacin, 1-N-[L-(-)-γ-amino-α-hydroxybutyryl]kanamycin A]
B. brevis IFO 12334
  MIC: 6.3 µg/mL (≈ 10.8 µM)
S. aureus A22054
  MIC: 6.3 µg/mL (≈ 10.8 µM)
S. epidermidis A22033
  MIC: 6.3 µg/mL (≈ 10.8 µM)
E. cloacae A20364
  MIC: 3.1 µg/mL (≈ 5.29 µM)
E. coli A20363
  MIC: 1.6 µg/mL (≈ 2.73 µM)
E. cloacae A21006
  MIC: 1.6 µg/mL (≈ 2.73 µM)
E. coli A20107
  MIC: 1.6 µg/mL (≈ 2.73 µM)
E. coli A20895
  MIC: 0.8 µg/mL (≈ 1.37 µM)
E. coli A20732
  MIC: 0.8 µg/mL (≈ 1.37 µM)
E. cloacae A20464
  MIC: 3.1 µg/mL (≈ 5.29 µM)
E. coli A9632
  MIC: 0.8 µg/mL (≈ 1.37 µM)
P. stuartii A20615
  MIC: 1.6 µg/mL (≈ 2.73 µM)
P. Morganii A20031
  MIC: 1.6 µg/mL (≈ 2.73 µM)
K. pneumoniae A15130
  MIC: 1.6 µg/mL (≈ 2.73 µM)
S. marcescens A20019
  MIC: 1.6 µg/mL (≈ 2.73 µM)
S. aureus Smith
  MIC: 0.8 µg/mL (≈ 1.37 µM)
P. mirabilis A9900
  MIC: 1.6 µg/mL (≈ 2.73 µM)
B. brevis ATCC8185
  MIC: 0.8 µg/mL (≈ 1.37 µM)
P. vulgaris A9526
  MIC: 0.8 µg/mL (≈ 1.37 µM)
[1]
  susceptibility to ANT(4'): still susceptible
[2]
  susceptibility to AAC(6'): still susceptible
S. marcescens A22382
  MIC: 12.5 µg/mL (≈ 21.3 µM)
S. epidermidis A22211
  MIC: 12.5 µg/mL (≈ 21.3 µM)
S. aureus A22153
  MIC: 12.5 µg/mL (≈ 21.3 µM)
P. aeruginosa GN4925
  MIC: 12.5 µg/mL (≈ 21.3 µM)
S. aureus A22421
  MIC: 12.5 µg/mL (≈ 21.3 µM)
S. marcescens A21226
  MIC: 6.3 µg/mL (≈ 10.8 µM)
S. marcescens A22288
  MIC: 6.3 µg/mL (≈ 10.8 µM)
P. rettgeri HM-56
  MIC: > 100 µg/mL
S. marcescens A21235
  MIC: 25 µg/mL (≈ 42.7 µM)
E. coli A2128
  MIC: 3.1 µg/mL (≈ 5.29 µM)
P. aeruginosa GN315
  MIC: 50 µg/mL (≈ 85.4 µM)
E. cloacae HM-43
  MIC: > 100 µg/mL
S. epidermidis A22152
  MIC: 3.1 µg/mL (≈ 5.29 µM)
[3]
  effectiveness against enzyme-containing microorganisms: effective against a wide variety of microorganisms containing aminoglycoside-inactivating enzymes
